biological target: not listed separately; assay: Antibacterial activity against D-alanyl-D-alanine ligase from Streptococcus faecalis (ATCC 8043)

Row | SMILES | IC50 [µM]
1 | CCCCCCCC(C[PH](O)(O)C(C)=N)C(=O)O (stereo not given) | 12.5

biological target: D-alanine--D-alanine ligase (Enterococcus faecalis); assay: as above

Row | SMILES | IC50 [µM]
2 | CC(N)P(=O)(O)CC(Cc1ccccc1)C(=O)O (stereo not given) | 50
3 | CCCCCCCC(C[PH](O)(O)C(C)=N)C(=O)O (stereo not given) | 200
4 | C[C@H](N)P(=O)(O)O [1-Ammonium-ethanephosphonic acid anion] | 930
5 | CC(=N)[PH](O)(O)CC(CC(C)C)C(=O)O (stereo not given) [2-[(1-Amino-ethyl)-hydroxy-phosphinoylmethyl]-4-methyl-pentanoic acid;hydrate] | 30
6 | CC(=N)[PH](O)(O)CC(CCc1ccccc1)C(=O)O (stereo not given) [2-[(1-Amino-ethyl)-hydroxy-phosphinoylmethyl]-4-phenyl-butyric acid;hydrate] | 40
7 | CC(N)P(=O)(O)CC(CCCc1ccccc1)C(=O)O (stereo not given) [2-[(1-Amino-ethyl)-hydroxy-phosphinoylmethyl]-5-phenyl-pentanoic acid;hydrate] | 50
8 | CCC(C[PH](O)(O)C(C)=N)C(=O)O (stereo not given) [2-[(1-Amino-ethyl)-hydroxy-phosphinoylmethyl]-butyric acid;hydrate] | 45
9 | CCCC(CP(=O)(O)C(C)N)C(=O)O (stereo not given) [2-[(1-Amino-ethyl)-hydroxy-phosphinoylmethyl]-pentanoic acid;hydrate] | 20
10 | CCCCC(C[PH](O)(O)C(=N)CC)C(=O)O (stereo not given) [2-[(1-Amino-propyl)-hydroxy-phosphinoylmethyl]-hexanoic acid;hydrate] | 155

— BindingDB's records for doi:10.1021/jm00117a017 (Merck Sharp and Dohme Research Laboratories, 1988)
